What was measured:
[1] = target: Adenosine receptors; A1 & A2 (Rattus norvegicus) (UniProt P29276+P25099+P30543); assay: Ratio of Ki values of A1 adenosine and A2 adenosine receptor; format: protein assay
Rattus norvegicus [2] = assay: Antihypertensive activity was measured as change in blood pressure for a 10-h after 10 mg/kg oral dose; format: functional
Rattus norvegicus [3] = assay: Antihypertensive activity measured as change in heart rate was measured for a 10-h after 10 mg/kg oral dose; format: functional
Adenosine receptor A1 = target: T1, Adenosine receptor A1 (Rattus norvegicus, UniProt P25099); assay: Binding affinity towards adenosine A1 receptor
T1 sequence (P25099 whole entry): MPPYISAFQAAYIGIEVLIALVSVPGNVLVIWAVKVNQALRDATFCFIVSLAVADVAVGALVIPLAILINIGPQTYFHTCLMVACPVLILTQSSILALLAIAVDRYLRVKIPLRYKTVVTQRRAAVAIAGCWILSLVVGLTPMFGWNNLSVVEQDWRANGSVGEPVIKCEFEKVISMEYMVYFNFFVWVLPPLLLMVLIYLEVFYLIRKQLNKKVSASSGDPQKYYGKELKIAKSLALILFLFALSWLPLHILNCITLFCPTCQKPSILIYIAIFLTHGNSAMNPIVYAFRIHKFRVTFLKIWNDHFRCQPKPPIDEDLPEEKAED

Adenosine A2 receptor = Adenosine A2 receptor (Rattus norvegicus, UniProt P29276+P30543); assay: Binding affinity towards adenosine A2 receptor; format: protein assay
Rattus norvegicus [4] = assay: Antihypertensive activity measured as change in blood pressure for a 10-h after 10 mg/kg oral dose in rat; format: functional

Structure (SMILES) | Ratio [1] | Ki (Adenosine receptor A1) [nM] | Ki (Adenosine A2 receptor) [nM] | Change (Rattus norvegicus [2]) [%] | Change (Rattus norvegicus [3]) [%] | Change (Rattus norvegicus [4]) [%]
CCCOc1ccc2c(c1)CCC2Nc1ncnc2c1ncn2[C@@H]1O[C@H](CO)[C@@H](O)[C@H]1O (stereo not given in full) | 188 | 28.2 | 5302 |  | -30 | -43
CCOc1ccc2c(c1)C(Nc1ncnc3c1ncn3[C@@H]1O[C@H](CO)[C@@H](O)[C@H]1O)CCC2 (stereo not given in full) | 86.4 | 68.6 | 5929 |  | 32 | -39
OC[C@H]1O[C@@H](n2cnc3c(NC4CCCc5ccc(OCc6ccccc6)cc54)ncnc32)[C@H](O)[C@@H]1O (stereo not given in full) | 12.4 | 7660 | 95100 |  | 20 | -30
OC[C@H]1O[C@@H](n2cnc3c(NC4CCCc5c(OCc6ccccc6)cccc54)ncnc32)[C@H](O)[C@@H]1O (stereo not given in full) | 3.7 | 138 | 511 |  | 20 | -14
OC[C@H]1O[C@@H](n2cnc3c(NCC4=CCCc5ccccc54)ncnc32)[C@H](O)[C@@H]1O | 0.53 | 99.8 | 53.4 |  | 16 | -39
OC[C@H]1OC(n2cnc3c(NCC4(O)CCCc5ccccc54)ncnc32)[C@H](O)[C@@H]1O (stereo not given in full) | 31.4 | 61.3 | 1922 |  | <10 | <10
CCCOc1cccc2c1CCCC2Nc1ncnc2c1ncn2[C@@H]1O[C@H](CO)[C@@H](O)[C@H]1O (stereo not given in full) | 4 | 81.1 | 327 |  | 16 | -27
CC(C)Oc1cccc2c1CCCC2Nc1ncnc2c1ncn2[C@@H]1O[C@H](CO)[C@@H](O)[C@H]1O (stereo not given in full) | 7.3 | 87.9 | 642 |  | 24 | -19
CCCCCOc1ccc2c(c1)CCC2Nc1ncnc2c1ncn2[C@@H]1O[C@H](CO)[C@@H](O)[C@H]1O (stereo not given in full) | 120 | 104 | 12480 |  | -20 | -47
O=[N+]([O-])c1ccc2c(c1)CCC2Nc1ncnc2c1ncn2[C@@H]1O[C@H](CO)[C@@H](O)[C@H]1O (stereo not given in full) | 87.6 | 40.5 | 3548 |  | <10 | -14
OC[C@H]1O[C@@H](n2cnc3c(N[C@H]4CCc5ccccc54)ncnc32)[C@H](O)[C@@H]1O | 74 | 310 | 23000 |  | <10 | <10
OC[C@H]1O[C@@H](n2cnc3c(NCC4(O)CCc5ccccc54)ncnc32)[C@H](O)[C@@H]1O (stereo not given in full) | 9.8 | 68 | 666 |  | 17 | -23
OC[C@H]1OC(n2cnc3c(NCC4=CCc5ccccc54)ncnc32)[C@H](O)[C@@H]1O (stereo not given in full) | 1.36 | 32.4 | 44.2 |  | 26 | -32
COc1cc2c(c(OC)c1OC)C(Nc1ncnc3c1ncn3[C@@H]1O[C@H](CO)[C@@H](O)[C@H]1O)CC2 (stereo not given in full) | 32.6 | 1520 | 49710 |  | <10 | <10

Further lines, with some results ahead:

Ratio [1] | Ki (Adenosine receptor A1) [nM] | Ki (Adenosine A2 receptor) [nM] | Structure (SMILES) | Change (Rattus norvegicus [2]) [%] | Change (Rattus norvegicus [3]) [%] | Change (Rattus norvegicus [4]) [%]
9.6 | 41.2 | 396 | CCOc1cccc2c1CCCC2Nc1ncnc2c1ncn2[C@@H]1O[C@H](CO)[C@@H](O)[C@H]1O (stereo not given in full) | -42 | <10 | 
9.5 | 33.7 | 321 | OC[C@H]1O[C@@H](n2cnc3c(NC4CCCc5ccccc54)ncnc32)[C@H](O)[C@@H]1O (stereo not given in full) |  | -24 | -51
40.3 | 8.39 | 339 | OC[C@H]1OC(n2cnc3c(NC4CCc5ccccc5C4)ncnc32)[C@H](O)[C@@H]1O (stereo not given in full) |  | -44 | -47
7.3 | 118 | 857 | OC[C@H]1O[C@@H](n2cnc3c(NCC4CCCCc5ccccc54)ncnc32)[C@H](O)[C@@H]1O (stereo not given in full) |  | <10 | <10
36.5 | 13.6 | 496 | OC[C@H]1O[C@@H](n2cnc3c(NC4COc5ccccc5C4)ncnc32)[C@H](O)[C@@H]1O (stereo not given in full) | -38 | -33 | 
12.9 | 5.19 | 66.7 | OC[C@H]1O[C@@H](n2cnc3c(NCC4CCc5ccccc54)ncnc32)[C@H](O)[C@@H]1O (stereo not given in full) |  | -15 | -40
5.2 | 17.3 | 91.7 | OC[C@H]1O[C@@H](n2cnc3c(NCC4CCCc5ccccc54)ncnc32)[C@H](O)[C@@H]1O (stereo not given in full) |  | 21 | <10
18.2 | 42.3 | 769 | OC[C@H]1O[C@@H](n2cnc3c(NC4CCc5cc(O)ccc54)ncnc32)[C@H](O)[C@@H]1O (stereo not given in full) |  | -11 | -17
1.83 | 31.9 | 58.3 | OC[C@H]1O[C@@H](n2cnc3c(NC4CCSc5ccccc54)ncnc32)[C@H](O)[C@@H]1O (stereo not given in full) |  | 29 | -23

Reference: ChEMBL document CHEMBL1125617, “N6-substituted adenosine receptor agonists: potential antihypertensive agents” (J Med Chem, 1991)
